Test results reported in patent US7473688B2, “Indolobenzazepine HCV NS5B inhibitors” (Bristol-Myers Squibb Company, priority 2005, dated 2009).

Assays:
[1] = molecular target: T1, HCV NS5B (Hepatitis C virus genotype 1b, UniProt Q9WMX2); assay: HCV NS5B RdRp enzyme assay (preincubation protocol); type: biochemical; settings: Table 1, read-out: IC50*
T1 construct: The protein was expressed with an 18 amino acid C-terminal truncation to enhance the solubility; made in house; host or cells: E. coli BL21 (DE3), pET21a
How it was run: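 Preincubation format: enzyme (14 nM, genotype 1b, 18-residue C-terminal truncation) meets diluted compound first; reaction started with bead-bound biotinylated dT12 primer, polyA template 0.2 nM and 0.29 μM 3H-UTP. Run 4 h, 30 °C in Hepes pH 7.5; scintillation proximity signal; IC50 fitted from seven inhibitor levels.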

[2] = tested on: HCV replicon; assay: HCV replicon FRET assay; type: cell-based; settings: Hepatitis C virus, Table 1; FRET assay; read-out: EC50*
Text: FRET Assay Preparation. To perform the HCV FRET screening assay, 96-well cell culture plates were used. The FRET peptide (Anaspec, Inc.) (Taliani et al., Anal. Biochem. 1996, 240, 60-67) contains a fluorescence donor, EDANS, near one end of the peptide and an acceptor, DABCYL, near the other end. The fluorescence of the peptide is quenched by […] resonance energy transfer (RET) between the donor and the acceptor, but as the NS3 protease cleaves the peptide the products are released from RET quenching and the fluorescence of the donor becomes apparent. The assay reagent was made as follows: 5× cell Luciferase cell culture lysis reagent from Promega (#E153A) diluted to 1× with dH2O, NaCl added to 150 mM final, the FRET peptide diluted to 20 uM final from a 2 mM stock.
To prepare plates, HCV replicon cells, with or without a Renilla luciferase reporter gene, were trypsinized and placed into each well of a 96-well plate with titrated test compounds added in columns 3 through 12; columns 1 and 2 contained a control compound (HCV protease inhibitor), and the bottom row contained cells without compound. The plates were then placed in a CO2 incubator at 37° C.
Assays. Subsequent to addition of the test compounds described above (FRET Assay Preparation), at various times the plate was removed and Alamar blue solution (Trek Diagnostics, #00-100) was added per well as a measure of cellular toxicity. After reading in a Cytoflour 4000 instrument (PE Biosystems), plates were rinsed with PBS and then used for FRET assay by the addition of 30 ul of the FRET peptide assay reagent described above (FRET Assay Preparation) per well. The plate was then placed into the Cytoflour 4000 instrument which had been set to 340 excite/490 emission, automatic mode for 20 cycles and the plate read in a kinetic mode. Typically, the signal to noise using an endpoint analysis after the reads was at least three-fold. Alternatively, after Alamar blue reading, plates were rinsed with PBS, 50 ul of DMEM (high glucose) without phenol red was added and plates were then used for luciferase assay using the Promega Dual-Glo Luciferase Assay System.
Compound analysis was determined by quantification of the relative HCV replicon inhibition and the relative cytotoxicity values. To calculate cytoxicity values, the average Alamar Blue fluorescence signals from the control wells were set as 100% non-toxic. The individual signals in each of the compound test wells were then divided by the average control signal and multiplied by 100% to determine […]. To calculate the HCV replicon inhibition values, an average background value was obtained from the two wells containing the highest amount of HCV protease inhibitor at the end of the assay period. These numbers were similar to those obtained from naïve Huh-7 cells.
The background numbers were then subtracted from the average signal obtained from the control wells and this number was used as 100% activity. The individual signals in each of the compound test wells were then divided by the averaged control values after background subtraction and multiplied by 100% to determine percent activity. EC50 values for a protease inhibitor titration were calculated as the concentration which caused a 50% reduction in FRET or luciferase activity. The two numbers generated for the compound plate, percent cytoxicity and percent activity were used to determine compounds of interest for further analysis.

T1 sequence (Q9WMX2 2420-2992): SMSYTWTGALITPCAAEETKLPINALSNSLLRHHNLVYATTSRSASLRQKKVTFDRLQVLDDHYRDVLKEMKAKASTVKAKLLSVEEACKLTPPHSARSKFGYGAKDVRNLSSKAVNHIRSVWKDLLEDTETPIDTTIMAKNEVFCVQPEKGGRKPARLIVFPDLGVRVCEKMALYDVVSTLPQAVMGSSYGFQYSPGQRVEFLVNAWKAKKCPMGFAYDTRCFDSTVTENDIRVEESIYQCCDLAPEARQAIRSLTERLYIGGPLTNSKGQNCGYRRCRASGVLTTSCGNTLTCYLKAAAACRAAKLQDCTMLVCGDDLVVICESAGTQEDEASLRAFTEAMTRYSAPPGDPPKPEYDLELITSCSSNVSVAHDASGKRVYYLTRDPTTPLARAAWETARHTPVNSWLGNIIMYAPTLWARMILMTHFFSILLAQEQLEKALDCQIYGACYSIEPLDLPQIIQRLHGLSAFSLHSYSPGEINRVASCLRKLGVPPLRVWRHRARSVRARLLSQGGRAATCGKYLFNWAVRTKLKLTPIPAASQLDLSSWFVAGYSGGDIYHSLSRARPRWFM

Structure (SMILES) | IC50 [1] [nM] | EC50 [2] [nM]
CN(C)S(=O)(=O)NC(=O)c1ccc2c(C3CCCCC3)c3n(c2c1)CC(C(=O)N1CCNC(=O)C1)=Cc1ccccc1-3 | 10 to 1000 | 70 to 1000
CN(C)S(=O)(=O)NC(=O)c1ccc2c(C3CCCCC3)c3n(c2c1)CC(C(=O)N1CCN(S(C)(=O)=O)CC1)=Cc1ccccc1-3 | 10 to 1000 | 70 to 1000
CC(=O)N1CCN(C(=O)C2=Cc3ccccc3-c3c(C4CCCCC4)c4ccc(C(=O)NS(=O)(=O)N(C)C)cc4n3C2)CC1 | 10 to 1000 | 70 to 1000
CN(C)S(=O)(=O)NC(=O)c1ccc2c(C3CCCCC3)c3n(c2c1)CC(C(=O)N1CCN(c2ccccc2)CC1)=Cc1ccccc1-3 | 10 to 1000 | 70 to 1000
CN(C)S(=O)(=O)NC(=O)c1ccc2c(C3CCCCC3)c3n(c2c1)CC(C(=O)N1CCC(n2ccnn2)CC1)=Cc1ccccc1-3 | 10 to 1000 | 70 to 1000
CN(C)S(=O)(=O)NC(=O)c1ccc2c(C3CCCCC3)c3n(c2c1)CC(C(=O)N1CCC(N2CCOCC2)CC1)Cc1ccccc1-3 (centres unmarked) | 10 to 1000 | 70 to 1000
COC(=O)c1ccc2c(C3CCCCC3)c3n(c2c1)CC(C(=O)N1CCC(N2CCOCC2)CC1)=Cc1cc(OC)ccc1-3 | > 1000 | 1000 to 10000
CCN(CC)C(=O)C1CCCN(C(=O)C2=Cc3ccccc3-c3c(C4CCCCC4)c4ccc(C(=O)NS(=O)(=O)N(C)C)cc4n3C2)C1 (centres unmarked) | 10 to 1000 | 70 to 1000
O=C(O)c1ccc2c(C3CCCCC3)c3n(c2c1)CC(C(=O)N1CCC(N2CCOCC2)CC1)=Cc1ccc(Cl)cc1-3 | > 1000 | 1000 to 10000
COc1ccc2c(c1)C=C(C(=O)N1CCC(N3CCOCC3)CC1)Cn1c-2c(C2CCCCC2)c2ccc(C(=O)O)cc21 | 10 to 1000 | 70 to 1000
CN(C)S(=O)(=O)NC(=O)c1ccc2c(C3CCCCC3)c3n(c2c1)CC(C(=O)N1CCC(N(C2CC2)S(=O)(=O)c2ccccc2)CC1)=Cc1ccccc1-3 | 10 to 1000 | 70 to 1000
CN(C)S(=O)(=O)NC(=O)c1ccc2c(C3CCCCC3)c3n(c2c1)CC(C(=O)N1CCC(N2CCC(F)(F)CC2)CC1)=Cc1ccccc1-3 | 10 to 1000 | 70 to 1000
CN(C)S(=O)(=O)NC(=O)c1ccc2c(C3CCCCC3)c3n(c2c1)CC(C(=O)N1CCC(F)(F)CC1)=Cc1ccccc1-3 | 10 to 1000 | 70 to 1000
CN(C)S(=O)(=O)NC(=O)c1ccc2c(C3CCCCC3)c3n(c2c1)CC(C(=O)N1CCCC(F)(F)C1)=Cc1ccccc1-3 | 10 to 1000 | 70 to 1000
COc1ccc2c(c1)C=C(C(=O)N1CCC(N3CCOCC3)CC1)Cn1c-2c(C2CCCCC2)c2ccc(C(=O)NS(=O)(=O)N(C)C)cc21 | 10 to 1000 | 70 to 1000
CN(C)S(=O)(=O)NC(=O)c1ccc2c(C3CCCCC3)c3n(c2c1)CC(C(=O)N1CCC(N2CCOCC2)CC1)=Cc1ccc(Cl)cc1-3 | > 1000 | 1000 to 10000
COC(=O)c1ccc2c(C3CCCCC3)c3n(c2c1)CC(NC(=O)N1CCC(N2CCOCC2)CC1)Cc1ccccc1-3 (centres unmarked) | 10 to 1000 | > 120
O=C(O)c1ccc2c(C3CCCCC3)c3n(c2c1)CC(NC(=O)N1CCC(N2CCOCC2)CC1)Cc1ccccc1-3 (centres unmarked) | 10 to 1000 | 70 to 1000
COC(=O)c1ccc2c(C3CCCCC3)c3n(c2c1)CC(C(=O)N1CCCC(F)C1)=Cc1ccccc1-3 (centres unmarked) | 10 to 1000 | > 370
COC(=O)c1ccc2c(C3CCCCC3)c3n(c2c1)CC(C(=O)N1CCC(N2CCCC(F)C2)CC1)=Cc1ccccc1-3 (centres unmarked) | > 1000 | > 370

Structure (SMILES) | IC50 [1] [nM] | EC50 [2] [nM]
COC(=O)c1ccc2c(C3CCCCC3)c3n(c2c1)CC(C(=O)N1CCC(N2CCCC(F)(F)C2)CC1)=Cc1ccccc1-3 | > 1000 | > 370
COC(=O)c1ccc2c(C3CCCCC3)c3n(c2c1)CC(C(=O)N1CC[C@H](F)C1)=Cc1ccccc1-3 | > 1000 | > 370
COC(=O)c1ccc2c(C3CCCCC3)c3n(c2c1)CC(C(=O)N1CCC(N2CC[C@@H](F)C2)CC1)=Cc1ccccc1-3 | > 1000 | > 370
COC(=O)c1ccc2c(C3CCCCC3)c3n(c2c1)CC(C(=O)N1CCC(N2CCC(F)CC2)CC1)=Cc1ccccc1-3 | > 1000 | > 370
COC(=O)c1ccc2c(C3CCCCC3)c3n(c2c1)CC(C(=O)N1CCCC(=O)N1)=Cc1ccccc1-3 | > 1000 | 1000 to 10000
COC(=O)c1ccc2c(C3CCCCC3)c3n(c2c1)CC(C(=O)N1CCCC(C(N)=O)C1)=Cc1ccccc1-3 (centres unmarked) | > 1000 | 1000 to 10000
O=C(O)c1ccc2c(C3CCCCC3)c3n(c2c1)CC(C(=O)N1CCCC(F)C1)=Cc1ccccc1-3 (centres unmarked) | 10 to 1000 | 1000 to 10000
O=C(O)c1ccc2c(C3CCCCC3)c3n(c2c1)CC(C(=O)N1CCC(N2CCCC(F)C2)CC1)=Cc1ccccc1-3 (centres unmarked) | 10 to 1000 | 70 to 1000
O=C(O)c1ccc2c(C3CCCCC3)c3n(c2c1)CC(C(=O)N1CCC(N2CCCC(F)(F)C2)CC1)=Cc1ccccc1-3 | 10 to 1000 | 70 to 1000
O=C(O)c1ccc2c(C3CCCCC3)c3n(c2c1)CC(C(=O)N1CC[C@@H](F)C1)=Cc1ccccc1-3 | 10 to 1000 | 70 to 1000
O=C(O)c1ccc2c(C3CCCCC3)c3n(c2c1)CC(C(=O)N1CC[C@H](F)C1)=Cc1ccccc1-3 | 10 to 1000 | 70 to 1000
O=C(O)c1ccc2c(C3CCCCC3)c3n(c2c1)CC(C(=O)N1CCC(N2CC[C@@H](F)C2)CC1)=Cc1ccccc1-3 | 10 to 1000 | 70 to 1000
O=C(O)c1ccc2c(C3CCCCC3)c3n(c2c1)CC(C(=O)N1CCC(N2CC[C@H](F)C2)CC1)=Cc1ccccc1-3 | 10 to 1000 | 70 to 1000
O=C(O)c1ccc2c(C3CCCCC3)c3n(c2c1)CC(C(=O)N1CCC(N2CCC(F)CC2)CC1)=Cc1ccccc1-3 | 10 to 1000 | 70 to 1000
O=C1CCCN(C(=O)C2=Cc3ccccc3-c3c(C4CCCCC4)c4ccc(C(=O)O)cc4n3C2)N1 | 10 to 1000 | 1000 to 10000
NC(=O)C1CCCN(C(=O)C2Cc3ccccc3-c3c(C4CCCCC4)c4ccc(C(=O)O)cc4n3C2)C1 (centres unmarked) | 10 to 1000 | 1000 to 10000
CN(C)S(=O)(=O)NC(=O)c1ccc2c(C3CCCCC3)c3n(c2c1)CC(C(=O)N1CCCC(F)C1)=Cc1ccccc1-3 (centres unmarked) | 10 to 1000 | 70 to 1000
CN(C)S(=O)(=O)NC(=O)c1ccc2c(C3CCCCC3)c3n(c2c1)CC(C(=O)N1CCC(N2CCCC(F)C2)CC1)=Cc1ccccc1-3 (centres unmarked) | 10 to 1000 | 70 to 1000
CN(C)S(=O)(=O)NC(=O)c1ccc2c(C3CCCCC3)c3n(c2c1)CC(C(=O)N1CCC(N2CCCC(F)(F)C2)CC1)=Cc1ccccc1-3 | 10 to 1000 | 70 to 1000
CN(C)S(=O)(=O)NC(=O)c1ccc2c(C3CCCCC3)c3n(c2c1)CC(C(=O)N1CC[C@@H](F)C1)=Cc1ccccc1-3 | 10 to 1000 | 70 to 1000
